Biological target: T1, human HSL (Homo sapiens, UniProt Q05469)
T1 construct: overlapping PCR to generate a full length human HSL ORF with a 3′-His6 tag; His6 (C); made in house; host or cells: High 5 insect cells (baculovirus, pFast-BAC)
T1 sequence (Q05469 1-1076): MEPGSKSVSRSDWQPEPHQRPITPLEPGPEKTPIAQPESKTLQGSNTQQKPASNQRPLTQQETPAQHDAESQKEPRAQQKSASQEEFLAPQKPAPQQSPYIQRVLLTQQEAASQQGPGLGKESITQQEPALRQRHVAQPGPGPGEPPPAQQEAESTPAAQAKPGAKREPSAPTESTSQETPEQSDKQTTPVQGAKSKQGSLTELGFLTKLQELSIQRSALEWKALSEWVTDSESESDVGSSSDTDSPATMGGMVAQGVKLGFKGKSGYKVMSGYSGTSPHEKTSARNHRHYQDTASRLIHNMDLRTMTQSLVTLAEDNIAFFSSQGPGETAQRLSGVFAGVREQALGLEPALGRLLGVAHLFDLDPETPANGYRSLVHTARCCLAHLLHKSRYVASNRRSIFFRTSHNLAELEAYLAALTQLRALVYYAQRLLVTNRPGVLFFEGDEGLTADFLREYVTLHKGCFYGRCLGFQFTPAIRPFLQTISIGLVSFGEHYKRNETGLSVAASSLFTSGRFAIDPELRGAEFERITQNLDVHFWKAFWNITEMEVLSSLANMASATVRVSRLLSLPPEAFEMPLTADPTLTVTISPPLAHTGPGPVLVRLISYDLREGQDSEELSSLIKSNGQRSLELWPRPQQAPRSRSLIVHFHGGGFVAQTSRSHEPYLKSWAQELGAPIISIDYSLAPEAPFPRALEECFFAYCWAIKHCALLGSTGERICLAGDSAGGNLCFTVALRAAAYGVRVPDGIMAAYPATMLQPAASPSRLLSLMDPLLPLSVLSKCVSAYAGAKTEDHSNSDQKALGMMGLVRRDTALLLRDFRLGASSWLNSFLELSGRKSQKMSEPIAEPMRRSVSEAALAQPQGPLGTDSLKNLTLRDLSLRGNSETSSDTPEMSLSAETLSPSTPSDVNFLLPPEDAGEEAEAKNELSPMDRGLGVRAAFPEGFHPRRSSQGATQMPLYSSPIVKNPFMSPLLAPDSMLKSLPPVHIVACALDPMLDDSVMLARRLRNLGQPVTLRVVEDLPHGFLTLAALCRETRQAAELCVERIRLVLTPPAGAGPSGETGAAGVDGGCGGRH
Test: Human Hormone-Sensitive Lipase (HSL) Enzyme Inhibition Assay
Type: biochemical
Details: colorimetric assay, 2,3-dimercapto-1-propanol tributyrate (DMPT) substrate, 37° C. for 20 minutes, absorbance at 405 nm; read-out: HSL hum IC50
How it was run: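 Colorimetric thioester hydrolysis: compounds in DMSO series mixed with DMPT (1.5 mM) in MOPS pH 7.2 with BSA, then baculovirus-expressed His6-tagged full-length human HSL added, 37° C, 20 min. DTNB plus detergents added, 15 min room temperature, absorbance at 405 nm.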

SMILES	IC50
CCCCOc1ccc(N2CCC3(CCN(S(=O)(=O)CC(C)C)CC3)C2=O)cc1 [Example 84, 2-(4-Butoxy-phenyl)-8-(2-methyl-propane-1-sulfonyl)-2,8-diaza-spiro[4.5]decan-1-one]	200 nM
CC(C)(C)CC(=O)N1CCC2(CC1)CCN(c1ccc(OCC(F)(F)F)cc1)C2=O [Example 120, 8-(3,3-Dimethyl-butyryl)-2-[4-(2,2,2-trifluoro-ethoxy)-phenyl]-2,8-diaza-spiro[4.5]decan-1-one]	600 nM
O=C1N(c2ccc(Cc3nnc(C(F)(F)F)o3)cc2)CCC12CCN(S(=O)(=O)c1ccccc1Cl)CC2 [Example 138, 8-(2-Chloro-benzenesulfonyl)-2-[4-(5-trifluoromethyl-[1,3,4]oxadiazol-2-ylmethyl)-phenyl]-2,8-diaza-spiro[4.5]decan-1-one]	530 nM
COc1ccc(N2CCC3(CCN(S(=O)(=O)c4ccccc4)CC3)C2=O)nn1 [Example 16, 8-Benzenesulfonyl-2-(6-methoxy-pyridazin-3-yl)-2,8-diaza-spiro[4.5]decan-1-one]	15000 nM
CCCN(CC)C(=O)N1CCC2(CC1)CCN(c1ccc(OC(F)(F)F)cc1)C2=O [Example 268, 1-Oxo-2-(4-trifluoromethoxy-phenyl)-2,8-diaza-spiro[4.5]decane-8-carboxylic acid ethyl-propyl-amide]	220 nM
CCOCc1ccc(N2CCCC3(CCN(S(=O)(=O)c4ccccc4Cl)CC3)C2=O)cc1 [Example 159, 9-(2-Chloro-benzenesulfonyl)-2-(4-ethoxymethyl-phenyl)-2,9-diaza-spiro[5.5]undecan-1-one]	300 nM
CC(Oc1ccc(N2CCC3(CCN(S(=O)(=O)CC(C)(C)C)CC3)C2=O)cc1)C(F)(F)F (racemic) [Example 22, (rac)-8-(2,2-Dimethyl-propane-1-sulfonyl)-2-[4-(2,2,2-trifluoro-1-methyl-ethoxy)-phenyl]-2,8-diaza-spiro[4.5]decan-1-one]	130 nM
O=C1N(c2ccc(OC(F)(F)F)cc2)CCC12CCN(S(=O)(=O)CC1CCCO1)CC2 (centres unmarked) [Example 214, 8-(Tetrahydro-furan-2-ylmethanesulfonyl)-2-(4-trifluoromethoxy-phenyl)-2,8-diaza-spiro[4.5]decan-1-one]	100 nM

Stronger by IC50, values ahead:

IC50	SMILES
90 nM	O=C1N(c2ccc(OC(F)(F)F)cc2)CCC12CCN(S(=O)(=O)N1CCOCC1)CC2 [Example 8, 8-(Morpholine-4-sulfonyl)-2-(4-trifluoromethoxy-phenyl)-2,8-diaza-spiro[4.5]decan-1-one]
80 nM	Cc1cccc(Cl)c1S(=O)(=O)N1CCC2(CCN(c3ccc(OC(F)(F)F)cc3)C2=O)CC1 [Example 312, 8-(2-Chloro-6-methyl-benzenesulfonyl)-2-(4-trifluoromethoxy-phenyl)-2,8-diaza-spiro[4.5]decan-1-one]
60 nM	CCc1ccc(N2CCC3(CCN(S(=O)(=O)c4ccccc4C(F)(F)F)CC3)C2=O)cc1 [Example 67, 2-(4-Ethyl-phenyl)-8-(2-trifluoromethyl-benzenesulfonyl)-2,8-diaza-spiro[4.5]decan-1-one]
50 nM	CCN(C(=O)N1CCC2(CC1)CCN(c1ccc(OC(F)(F)F)cc1)C2=O)c1cccc(C)c1 [Example 308, 1-Oxo-2-(4-trifluoromethoxy-phenyl)-2,8-diaza-spiro[4.5]decane-8-carboxylic acid ethyl-m-tolyl-amide]
50 nM	Cn1ncc2cc(N3CCC4(CCN(S(=O)(=O)c5ccccc5Cl)CC4)C3=O)ccc21 [Example 130, 8-(2-Chloro-benzenesulfonyl)-2-(1-methyl-1H-indazol-5-yl)-2,8-diaza-spiro[4.5]decan-1-one]
30 nM	O=C1N(c2ccc(OC(F)(F)F)cc2)CCC12CCN(S(=O)(=O)c1cccnc1)CC2 [Example 187, 8-(Pyridine-3-sulfonyl)-2-(4-trifluoromethoxy-phenyl)-2,8-diaza-spiro[4.5]decan-1-one]

From patent US8329904B2, “Azacyclic derivatives” (Hoffmann-La Roche Inc., priority 2009, dated 2012)
